The target of one experiment is T1, TRAP1 enzyme (Homo sapiens, UniProt Q12931).
T1 sequence (Q12931 60-704): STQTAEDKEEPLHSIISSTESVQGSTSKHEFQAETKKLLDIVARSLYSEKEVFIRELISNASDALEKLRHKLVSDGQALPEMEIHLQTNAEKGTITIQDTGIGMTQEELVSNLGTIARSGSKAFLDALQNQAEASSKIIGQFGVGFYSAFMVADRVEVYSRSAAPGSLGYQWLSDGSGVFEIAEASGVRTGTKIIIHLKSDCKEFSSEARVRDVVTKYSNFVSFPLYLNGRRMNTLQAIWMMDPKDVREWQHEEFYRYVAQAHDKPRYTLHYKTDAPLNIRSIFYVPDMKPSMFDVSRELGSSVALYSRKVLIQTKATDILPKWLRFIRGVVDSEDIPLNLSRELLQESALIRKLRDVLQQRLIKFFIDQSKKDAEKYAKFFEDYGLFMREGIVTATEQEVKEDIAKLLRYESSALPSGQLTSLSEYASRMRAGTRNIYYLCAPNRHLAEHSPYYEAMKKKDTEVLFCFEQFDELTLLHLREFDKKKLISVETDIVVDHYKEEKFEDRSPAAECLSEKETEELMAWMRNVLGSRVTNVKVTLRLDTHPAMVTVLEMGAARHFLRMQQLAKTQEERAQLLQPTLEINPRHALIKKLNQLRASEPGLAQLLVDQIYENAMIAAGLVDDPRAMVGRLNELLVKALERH
Put plainly: ADP Glo assay (ATPase activity of TRAP1). The experiment is classed as biochemical. The gist of the method:
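150 nM TRAP1 preincubated 30 min at 37 °C with compound (0.79–100 µM) in 25 mM Pipes pH 7.5, 40 mM KCl, 0.05 mM MgCl2; reaction started with 20 µM ATP, 60 min at 37 °C. ADP quantified by ADP-Glo luminescence against an ATP/ADP standard curve; Emax and EC50 from sigmoidal fits of activation.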
(ADP-Glo first removes unused ATP, then detects ADP through luciferase.)

Experiment [1] deals with primary rat dopaminergic neurons. Put plainly: ROS production in primary rat dopaminergic TH-positive neurons after 6-OHDA injury. Format: cell-based. Conditions: after injury with 6-OHDA (20 µM, 4 h); FIG. 1. As for the experimental part: Rat dopaminergic neurons were cultured as described by Visanji et al., 2008. Briefly, pregnant female rat of 15 days of gestation are sacrificed using a deep anesthesia with CO2 chamber and a cervical dislocation. The midbrains obtained from 15-day-old rat embryos are dissected under a microscope. The embryonic midbrains are removed and placed in ice-cold medium of Leibovitz (L15) containing 2% of Penicillin- Streptomycin (PS) and 1% of bovine serum albumin (BSA). The ventral portion of the mesencephalic flexure, a region of the developing brain rich in dopaminergic neurons, is used for the cell preparations.
The midbrains are dissociated by trypsinisation for 20 min at 37° C. (solution at a final concentration of 0.05% trypsin and 0.02% EDTA). The reaction is stopped by the addition of Dulbecco’s modified Eagle’s medium (DMEM) containing DNAase I grade II (0.5 mg/mL) and 10% of foetal calf serum (FCS). Cells are then mechanically dissociated by 3 passages through a 10 mL pipette. Cells are then centrifuged at 180 x g for 10 min at +4° C. on a layer of BSA (3.5%) in L15 medium. […] Viable cells are counted in a Neubauer cytometer using the trypan blue exclusion test. […] Six wells per condition are assessed. […]

By EC50 is commonly meant the concentration needed to bring the measured effect to its halfway point. The Emax is the size of the effect at its maximum, as opposed to the concentration needed.

In the case of `O=C(Nc1ccc2c(c1)S(=O)(=O)N(c1ccc(Br)cc1)CCO2)c1cnc(-c2ccccc2)[nH]1` [Compound 1331, N-(2-(4-bromophenyl)-1,1-dioxido-3,4-dihydro-2H-benzo[b][1,4,5]oxathiazepin-8-yl)-2-phenyl-1H-imidazole-5-carboxamide], at TRAP1 enzyme (150 nM Trap1, 20 µM ATP, concentration for half maximal activation, read-out: ADP GLO DRC: GeoMean EC50), the EC50 was under 20 µM. Besides, at TRAP1 enzyme (maximal percent activation, read-out: ADP GLO DRC: Mean Emax), the maximal response (Emax) was 150 to 200%. The ROS production result in experiment [1] is given as “reduction in ROS”.

Values taken from patent US20230218632A1, “CYCLIC SULFONAMIDE DERIVATIVES AS TRAP1 MODULATORS AND USES THEREOF” (Amathus Therapeutics, Inc., priority 2020, published 2023).
